Holding throughout (assay type): cell-based
For one test, the target named is T1, PPARα (Homo sapiens, UniProt Q07869).
T1 construct: It is a handle made for the test, not a second protein
T1 sequence (Q07869 200-468 limits assumed): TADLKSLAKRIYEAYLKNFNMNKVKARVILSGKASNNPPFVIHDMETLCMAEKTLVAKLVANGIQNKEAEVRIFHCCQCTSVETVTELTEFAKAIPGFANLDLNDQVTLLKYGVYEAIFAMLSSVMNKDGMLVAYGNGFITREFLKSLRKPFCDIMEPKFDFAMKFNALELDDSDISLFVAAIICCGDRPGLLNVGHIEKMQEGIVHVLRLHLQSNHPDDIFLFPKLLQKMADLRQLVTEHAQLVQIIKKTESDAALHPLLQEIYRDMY
In words: Cross curve PPAR transactivation test (PPARα). As to conditions: HeLN cells stably transfected with ERE-βGlob-Luc-SV-Neo and Gal-hPPARα; cross curves against reference agonist, Schild regression; read-out: PPAR alpha Kd app. The protocol: (§1) The activation of receptors with an agonist (activator) in HeLN cells leads to the expression of a reporter gene, luciferase, which, in the presence of a substrate, generates light. The modulation of the receptors is measured as quantity of luminescence produced after incubating the cells in the presence of a reference agonist. The ligands will displace the agonist from its site. The measurement of the activity is performed by quantification of the light produced. This measurement makes it possible to determine the modulatory activity of the compounds according to the invention by determining the constant which is the affinity of the molecule for the receptor. Since this value can fluctuate according to the basal activity and the expression of the receptor, it is called apparent Kd (KdApp in nM).
(§2) To determine this constant, “cross curves” for the product to be tested against a reference agonist are produced in a 96-well plate: 10 concentrations of the test product plus a concentration 0 are placed in a line, and 7 concentrations of the agonist plus one concentration 0 are placed in a column. This is 88 measurement points for 1 product and 1 receptor. The 8 remaining wells are used for repeatability controls. […]
(§3) The various dilutions of the test products and of the reference ligand are added in an amount of 5 μl per well. […] After 5 minutes, the plates are read by the luminescence reader.

In a further test the target is T2, PPARδ (Homo sapiens, UniProt Q03181).
T2 construct: It is a handle made for the test, not a second protein
T2 sequence (Q03181 211-441 limits assumed): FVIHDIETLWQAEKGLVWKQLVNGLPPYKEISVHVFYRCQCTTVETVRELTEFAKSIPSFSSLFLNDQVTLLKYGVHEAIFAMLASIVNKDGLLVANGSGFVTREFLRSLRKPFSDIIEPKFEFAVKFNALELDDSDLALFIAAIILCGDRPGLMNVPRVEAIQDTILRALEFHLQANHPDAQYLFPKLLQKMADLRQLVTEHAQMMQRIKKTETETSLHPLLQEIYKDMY
Kind of test: Cross curve PPAR transactivation test (PPARδ). As to conditions: HeLN cells stably transfected with ERE-βGlob-Luc-SV-Neo and Gal-hPPARδ; cross curves against reference agonist, Schild regression; read-out: PPAR delta Kd app. The protocol: as §1, §2, §3

The next test concerns the target T3, PPARγ (Homo sapiens, UniProt P37231).
T3 construct: It is a handle made for the test, not a second protein
T3 sequence (P37231 238-505 limits assumed): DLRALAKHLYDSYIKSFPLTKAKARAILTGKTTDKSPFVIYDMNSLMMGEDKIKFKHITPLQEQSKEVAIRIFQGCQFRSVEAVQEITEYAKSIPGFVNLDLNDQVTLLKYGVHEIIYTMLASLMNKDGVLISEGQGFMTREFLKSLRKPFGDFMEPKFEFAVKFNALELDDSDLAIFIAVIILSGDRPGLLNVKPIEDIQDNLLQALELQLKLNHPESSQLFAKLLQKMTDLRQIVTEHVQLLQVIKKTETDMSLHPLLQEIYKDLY
Kind of test: Cross curve PPAR transactivation test (PPARγ). As to conditions: HeLN cells stably transfected with ERE-βGlob-Luc-SV-Neo and Gal-hPPARγ; cross curves against reference agonist, Schild regression; read-out: PPAR gamma Kd app. The protocol: as §1, §2, §3

pKd: −log10 of the molar value.

Take `O=C(O)Cc1cccc(Sc2ccc(N(CCc3ccccc3)C(=O)NC3CCCCC3)cc2)c1` [Example 18b, {3-[4-(3-Cyclohexyl-1-phenethylureido)phenylsulfanyl]phenyl}acetic acid]: the pKd was 6.60 at PPARα, 7.82 on PPARδ and 7.52 on PPARγ.
`CCCCCCCN(C(=O)NCCc1ccccc1)c1cccc(Sc2cccc(CC(=O)O)c2)c1` [Example 25b, {3-[3-(1-Heptyl-3-phenethylureido)phenylsulfanyl]phenyl}acetic acid]: the pKd on PPARδ was 7.22; at PPARγ, 6.30.

For the origin of these results see patent US20060035969A1, “Novel modulators of the PPAR-type receptors and cosmetic/pharmaceutical compositions comprised thereof” (GALDERMA RESEARCH & DEVELOPMENT, S.N.C., priority 2003, published 2006).
